This note sets out measurements from patent US20250170141A1, “MRGPRX2 MODULATORS AND RELATED METHODS OF TREATMENT” (Escient Pharmaceuticals, Inc., priority 2023, published 2025).

The assay addresses T1, human MRGPRX2 (Homo sapiens, UniProt Q96LB1).
T1 construct: expressed in transfected cells; host or cells: CHO cells, stably transfected (G418 and Hygromycin B selection)
T1 sequence (Q96LB1 1-330): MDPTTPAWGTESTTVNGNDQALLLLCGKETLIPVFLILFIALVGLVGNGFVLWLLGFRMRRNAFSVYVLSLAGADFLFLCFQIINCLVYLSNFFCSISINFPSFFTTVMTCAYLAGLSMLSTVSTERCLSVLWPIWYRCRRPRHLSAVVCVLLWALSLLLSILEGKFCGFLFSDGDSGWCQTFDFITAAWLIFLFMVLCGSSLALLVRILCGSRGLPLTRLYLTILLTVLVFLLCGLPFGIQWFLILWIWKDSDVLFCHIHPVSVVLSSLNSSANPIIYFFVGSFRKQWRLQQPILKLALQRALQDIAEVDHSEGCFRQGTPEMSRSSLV
Briefly: MRGPRX2 activity: IP-One Gq HTRF assay in CHO cells, antagonism versus 0.3 uM Cortistatin-14. Type of assay: cell-based. The following applies: versus 0.3 uM Cortistatin-14 agonist, CHO cells expressing human MRGPRX2, read-out: MRGPRX2 Antagonist Activity. The protocol: CHO cells stably transfected to express human MRGPRX2 were maintained in an incubator at 37° C. with 5% CO2 and grown in F12 (HAM) media with 10% fetal bovine serum (FBS), 1% Glutamax, 1% penicillin/streptomycin, 800 μg/mL Geneticin (G418), and 300 μg/mL Hygromycin B.
Cells were plated in a 384-well assay plate at 20,000 cells per well in 12 μL of Opti-MEM and kept in an incubator overnight. On the day of the assay, compounds solubilized at 10 mM in DMSO were added as a 10-point curve (30 uM final top concentration with 1:3 serial dilutions) using a Tecan D300E digital dispenser. Agonists were diluted in assay buffer (final concentrations of 5.7 mM Tris-HCl, 43 mM NaCl, 50 mM LiCl, pH=8) and 2 μL of the agonist Cortistatin-14 (CPC Scientific, catalog CORT-002) are added to each well. Final concentrations of agonists were 0.3 μM Cortistatin. Final concentrations of DMSO were kept consistent across the plate. Plates were incubated in the dark for 1 h at 37° C. and then for 1 h at room temperature. IP-1 standards and HTRF detection reagents were added according to the IP-One—Gq Kit purchased from Cisbio (part number 62IPAPEJ) and incubated in the dark for 1 h at room temperature. The plate was read on a Molecular Devices SpectraMax iD5 plate reader. The HTRF ratio was calculated from the raw data and graphed using GraphPad Prism to calculate an IC50 value for each compound.
The activity ranges are denoted as follows: “+++++” denotes antagonist activity <100 nM; “++++” denotes antagonist activity between 100 and 500 nM; “+++” denotes activity between 501 and 1000 nM; “++” denotes activity between 1001 and 2500 nM; and “+” denotes activity >2500 nM.

Some results are limits rather than exact numbers.

Turning to `O=S1(=O)N=C(NCc2ncccc2F)Nc2c1ccc(F)c2Oc1cccc(F)c1F` [Compound 1-40, 5-(2,3-difluorophenoxy)-6-fluoro-3-(((3-fluoropyridin-2-yl)methyl)amino)-4H-benzo[e][1,2,4]thiadiazine 1,1-dioxide], the IC50 was 100 to 500 nM.
Take `O=S1(=O)N=C(NCc2ncccc2F)Nc2c(Oc3ccccc3Cl)c(F)cc(Cl)c21` [Compound 1-41, 8-chloro-5-(2-chlorophenoxy)-6-fluoro-3-(((3-fluoropyridin-2-yl)methyl)amino)-4H-benzo[e][1,2,4]thiadiazine 1,1-dioxide]: the IC50 lay within 100 to 500 nM.
In the case of `O=S1(=O)N=C(NCc2ncccc2F)Nc2c(Oc3ccccc3Cl)c(Cl)cc(F)c21` [Compound 1-42, 6-chloro-5-(2-chlorophenoxy)-8-fluoro-3-(((3-fluoropyridin-2-yl)methyl)amino)-4H-benzo[e][1,2,4]thiadiazine 1,1-dioxide], the IC50 lay in the range of 100 to 500 nM.
Turning to `O=S1(=O)N=C(NCc2ncccc2F)Nc2c1ccc(Cl)c2Oc1ccccc1Cl` [Compound 1-43, 6-chloro-5-(2-chlorophenoxy)-3-(((3-fluoropyridin-2-yl)methyl)amino)-4H-benzo[e][1,2,4]thiadiazine 1,1-dioxide], the IC50 is less than 100 nM.
As for `[2H]C([2H])(NC1=NS(=O)(=O)c2ccc(F)c(Oc3ccccc3Cl)c2N1)c1ccccc1` [Compound 1-44, 5-(2-chlorophenoxy)-6-fluoro-3-((phenylmethyl-d2)amino)-4H-benzo[e][1,2,4]thiadiazine 1,1-dioxide], the figure is 100 to 500 nM.
For the compound `Cc1cc(F)c(Oc2ccccc2Cl)c2c1S(=O)(=O)N=C(NCc1ncccc1F)N2` [Compound 1-45, 5-(2-chlorophenoxy)-6-fluoro-3-(((3-fluoropyridin-2-yl)methyl)amino)-8-methyl-4H-benzo[e][1,2,4]thiadiazine 1,1-dioxide], the IC50 fell in the range of 100 to 500 nM.
As for `O=S1(=O)N=C(NCc2cccc(F)n2)Nc2c1ccc(Cl)c2Oc1ccccc1Cl` [Compound 1-46, 6-chloro-5-(2-chlorophenoxy)-3-(((6-fluoropyridin-2-yl)methyl)amino)-4H-benzo[e][1,2,4]thiadiazine 1,1-dioxide], the IC50 is less than 100 nM.
On to `O=S1(=O)N=C(NCc2ncccc2F)Nc2c1cc(Cl)c(F)c2Oc1ccccc1Cl` [Compound 1-47, 7-chloro-5-(2-chlorophenoxy)-6-fluoro-3-(((3-fluoropyridin-2-yl)methyl)amino)-4H-benzo[e][1,2,4]thiadiazine 1,1-dioxide], for which the IC50 was in the range of 501 to 1000 nM.
With `O=S1(=O)N=C(NCc2ncccc2F)Nc2c1cc(F)c(Cl)c2Oc1ccccc1Cl` [Compound 1-48, 6-chloro-5-(2-chlorophenoxy)-7-fluoro-3-(((3-fluoropyridin-2-yl)methyl)amino)-4H-benzo[e][1,2,4]thiadiazine 1,1-dioxide], the IC50 is less than 100 nM.
As to `O=S1(=O)N=C(NCc2ccccc2)Nc2c1ccc(F)c2Oc1ccccc1Cl` [Compound 1-49, 3-(benzylamino)-5-(2-chlorophenoxy)-6-fluoro-4H-benzo[e][1,2,4]thiadiazine 1,1-dioxide], the IC50 was less than 100 nM.
For `O=S1(=O)N=C(NCc2ncccc2F)Nc2c1ccc(Cl)c2Oc1cccc(Cl)c1Cl` [Compound 1-50, 6-chloro-5-(2,3-dichlorophenoxy)-3-(((3-fluoropyridin-2-yl)methyl)amino)-4H-benzo[e][1,2,4]thiadiazine 1,1-dioxide], the IC50 was less than 100 nM.
In the case of `O=S1(=O)N=C(NCc2ncccc2F)Nc2c1ccc(Cl)c2Oc1cccc(F)c1Cl` [Compound 1-51, 6-chloro-5-(2-chloro-3-fluorophenoxy)-3-(((3-fluoropyridin-2-yl)methyl)amino)-4H-benzo[e][1,2,4]thiadiazine 1,1-dioxide], the IC50 was less than 100 nM.
On to `O=S1(=O)N=C(N2CCc3cccnc3C2)Nc2c1ccc(F)c2Oc1ccccc1Cl` [Compound 1-52, 5-(2-chlorophenoxy)-3-(5,8-dihydro-1,7-naphthyridin-7(6H)-yl)-6-fluoro-4H-benzo[e][1,2,4]thiadiazine 1,1-dioxide], for which the IC50 is more than 2500 nM.
Consider `CC(C)(F)CNC1=NS(=O)(=O)c2cccc(Oc3ccccc3Cl)c2N1` [Compound 1-244, 5-(2-chlorophenoxy)-3-((2-fluoro-2-methylpropyl)amino)-4H-benzo[e][1,2,4]thiadiazine 1,1-dioxide], for which the IC50 fell in the range of 1000 to 2500 nM.
As to `O=S1(=O)N=C(NCc2ncccc2Cl)Nc2c1ccc(F)c2Oc1ccccc1Cl` [Compound 2-2, 5-(2-chlorophenoxy)-3-(((3-chloropyridin-2-yl)methyl)amino)-6-fluoro-4H-benzo[e][1,2,4]thiadiazine 1,1-dioxide], the IC50 is less than 100 nM.
`C[C@@H](NC1=NS(=O)(=O)c2ccc(F)c(Oc3ccccc3Cl)c2N1)c1ccccc1F` [Compound 2-3, (R)-5-(2-chlorophenoxy)-6-fluoro-3-((1-(2-fluorophenyl)ethyl)amino)-4H-benzo[e][1,2,4]thiadiazine 1,1-dioxide]: the IC50 was more than 2500 nM.
With `O=S1(=O)N=C(NCc2cccc(F)n2)Nc2c1ccc(F)c2Oc1ccccc1Cl` [Compound 2-4, 5-(2-chlorophenoxy)-6-fluoro-3-(((6-fluoropyridin-2-yl)methyl)amino)-4H-benzo[e][1,2,4]thiadiazine 1,1-dioxide], the IC50 is less than 100 nM.
For the compound `O=S1(=O)N=C(NCc2cccnc2F)Nc2c1ccc(F)c2Oc1ccccc1Cl` [Compound 2-5, 5-(2-chlorophenoxy)-6-fluoro-3-(((2-fluoropyridin-3-yl)methyl)amino)-4H-benzo[e][1,2,4]thiadiazine 1,1-dioxide], the IC50 is 100 to 500 nM.
Consider `O=S1(=O)N=C(NCc2cccc3ccccc23)Nc2c1ccc(F)c2Oc1ccccc1Cl` [Compound 2-6, 5-(2-chlorophenoxy)-6-fluoro-3-((naphthalen-1-ylmethyl)amino)-4H-benzo[e][1,2,4]thiadiazine 1,1-dioxide], for which the IC50 was in the range of 100 to 500 nM.
As for `O=S1(=O)N=C(NCc2ncccc2F)Nc2c1ccc(F)c2Oc1ccc(F)cc1` [Compound 2-7, 6-fluoro-5-(4-fluorophenoxy)-3-(((3-fluoropyridin-2-yl)methyl)amino)-4H-benzo[e][1,2,4]thiadiazine 1,1-dioxide], the figure is 100 to 500 nM; as for `O=S1(=O)N=C(NCc2ncccc2F)Nc2c1ccc(F)c2Oc1cccc(F)c1` [Compound 2-8, 6-fluoro-5-(3-fluorophenoxy)-3-(((3-fluoropyridin-2-yl)methyl)amino)-4H-benzo[e][1,2,4]thiadiazine 1,1-dioxide], 100 to 500 nM; as for `O=S1(=O)N=C(NCc2ncccc2F)Nc2c1ccc(F)c2Oc1ccc(Cl)cc1` [Compound 2-9, 5-(4-chlorophenoxy)-6-fluoro-3-(((3-fluoropyridin-2-yl)methyl)amino)-4H-benzo[e][1,2,4]thiadiazine 1,1-dioxide], 100 to 500 nM.
Turning to `O=S1(=O)N=C(NCc2ncccc2F)Nc2c1ccc(F)c2Oc1cccc(Cl)c1` [Compound 2-10, 5-(3-chlorophenoxy)-6-fluoro-3-(((3-fluoropyridin-2-yl)methyl)amino)-4H-benzo[e][1,2,4]thiadiazine 1,1-dioxide], the IC50 was 100 to 500 nM.
`COc1ccc(Oc2c(F)ccc3c2NC(NCc2ncccc2F)=NS3(=O)=O)cc1` [Compound 2-11, 6-fluoro-3-(((3-fluoropyridin-2-yl)methyl)amino)-5-(4-methoxyphenoxy)-4H-benzo[e][1,2,4]thiadiazine 1,1-dioxide]: the IC50 was 1000 to 2500 nM.
As for `N#Cc1ccc(Oc2c(F)ccc3c2NC(NCc2ncccc2F)=NS3(=O)=O)cc1` [Compound 2-12, 4-((6-fluoro-3-(((3-fluoropyridin-2-yl)methyl)amino)-1,1-dioxido-4H-benzo[e][1,2,4]thiadiazin-5-yl)oxy)benzonitrile], the figure is 1000 to 2500 nM; as for `N#Cc1cccc(Oc2c(F)ccc3c2NC(NCc2ncccc2F)=NS3(=O)=O)c1` [Compound 2-13, 3-((6-fluoro-3-(((3-fluoropyridin-2-yl)methyl)amino)-1,1-dioxido-4H-benzo[e][1,2,4]thiadiazin-5-yl)oxy)benzonitrile], 501 to 1000 nM; as for `N#Cc1ccc2c(c1Oc1ccccc1F)NC(NCc1ncccc1Cl)=NS2(=O)=O` [Compound 3-1, 3-(((3-chloropyridin-2-yl)methyl)amino)-5-(2-fluorophenoxy)-4H-benzo[e][1,2,4]thiadiazine-6-carbonitrile 1,1-dioxide], less than 100 nM.
